Where two headings read alike, the source gives them in different places.

The values that follow come from patent US20180116978A1, “FORMULATIONS OF TOCOTRIENOL QUINONES FOR THE TREATMENT OF OPHTHALMIC DISEASES” (priority 2009, published 2018).

For data set [1] the following is noted: rat, cited from earlier work.
A short description of data set [2]: Animal study of alpha-tocotrienol quinone administration, pharmacokinetics in fasted dogs. As to conditions: 10 mg/kg. It counts as in vivo.
The conditions of data set [3]: rat, in vivo. An excerpt: The starting dose can be estimated based on the United States Food and Drug Administration guidelines titled “Estimating the Maximum Safe Starting Dose in Initial Clinical Trials for Therapeutics in Adult Healthy Volunteers” (July 2005) as well as the International Conference on Harmonisation of Technical Requirements for Registration of Pharmaceuticals for Human Use (ICH) guidelines titled “Guidance on Non-clinical Safety Studies for the Conduct of Human Clinical Trials and Marketing Authorization for Pharmaceuticals” (July 2008). Per ICH guidelines, predicted exposures from the starting dose should not exceed 1/50th the NOAEL (No-Adverse-Observed-Effect-Level) in the more sensitive species on a mg/m^2 basis. Following a single oral dose of alpha-tocotrienol quinone, the NOAEL was established to be 500 mg/kg for the female rat, i.e. 3,000 mg/m^2. This dosage would be equivalent to 81 mg/kg in an adult human. 1/50th of 81 mg/kg is 1.6 mg/kg, i.e. 110 mg for a 70 kg adult, or 16 mg for a 10 kg child. This dose can be administered once, twice, or three times daily.

For data set [4] the following is noted: rat, in vivo. The source holds these as a separate data set.

Consider `Cc1c(C)c2c(c(C)c1O)CC[C@@](C)(CCC[C@H](C)CCC[C@H](C)CCCC(C)C)O2` [alpha-tocopherol], for which the “concentration in ocular tissues” value in data set [1] (in vivo) is “no significant increase”.
In the case of `CC(C)=CCC/C(C)=C/CC/C(C)=C/CCC(C)(O)CCC1=C(C)C(=O)C(C)=C(C)C1=O` (stereo not drawn) [Alpha-tocotrienol quinone, Alpha-Tocotrienol quinone], in data set [2], the Cmax (usually the peak of the concentration-time curve) is given as 442 ng/mL; the Tmax (commonly the time from dosing to the highest level) was 2.8 h; the bioavailability (in general, the share of a dose that reaches the circulation, judged against a reference dose that is usually intravenous) is approximately 16%; the t1/2 is recorded as 7.6 h. In data set [3], the “NOAEL equivalent dosage in an adult human” value came to 81 mg/kg and the “safe when given acutely up to” value is reported as “up to 2000 mg/kg”. Further, the “increase in AUCs” value in data set [4] was 1.5:2.8:4.0:6.7. Moreover, in data set [4] (10 mg/kg), the Cmax was determined as 931 ng/mL, the Tmax is recorded as 3.5 h, the bioavailability is recorded as approximately 90% and the t1/2 came out at 3.5 h.
Turning to alpha-tocotrienol, in data set [1] (topical ophthalmic administration), the “concentration in ocular tissues” value is on record as “increased markedly in every tissue”.
